Data from article PMC12484723, “COOKIE-Pro: covalent inhibitor binding kinetics profiling on the proteome scale” (Nature Communications, 2025).

What was measured:
BLK = BLK (Homo sapiens, UniProt P51451); assay: COOKIE-Pro competition chemoproteomics in permeabilized Ramos cells (kinact, KI); type: cell-based
TEC kinase = molecular target: T1, TEC kinase (Homo sapiens, UniProt P42680); assay: as above; type: cell-based
T1 sequence (P42680 1-631): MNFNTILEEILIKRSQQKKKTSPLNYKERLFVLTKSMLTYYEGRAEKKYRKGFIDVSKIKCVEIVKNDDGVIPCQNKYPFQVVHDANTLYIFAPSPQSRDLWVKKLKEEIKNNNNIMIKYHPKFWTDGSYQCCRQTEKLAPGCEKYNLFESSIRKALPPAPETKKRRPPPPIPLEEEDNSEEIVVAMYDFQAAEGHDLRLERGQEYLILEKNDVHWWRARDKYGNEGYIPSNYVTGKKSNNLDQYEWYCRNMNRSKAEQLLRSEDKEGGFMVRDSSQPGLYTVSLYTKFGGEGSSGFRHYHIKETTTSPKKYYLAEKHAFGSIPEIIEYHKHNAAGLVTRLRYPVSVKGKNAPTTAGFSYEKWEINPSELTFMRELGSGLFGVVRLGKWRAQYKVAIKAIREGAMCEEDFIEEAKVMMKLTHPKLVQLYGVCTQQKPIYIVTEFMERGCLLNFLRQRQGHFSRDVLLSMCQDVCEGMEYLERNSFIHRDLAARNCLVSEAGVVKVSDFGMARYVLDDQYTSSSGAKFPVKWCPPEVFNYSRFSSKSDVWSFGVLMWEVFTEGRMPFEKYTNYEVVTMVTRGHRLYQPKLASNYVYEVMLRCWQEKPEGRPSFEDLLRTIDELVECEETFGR

BLK, sequence (P51451 2-505): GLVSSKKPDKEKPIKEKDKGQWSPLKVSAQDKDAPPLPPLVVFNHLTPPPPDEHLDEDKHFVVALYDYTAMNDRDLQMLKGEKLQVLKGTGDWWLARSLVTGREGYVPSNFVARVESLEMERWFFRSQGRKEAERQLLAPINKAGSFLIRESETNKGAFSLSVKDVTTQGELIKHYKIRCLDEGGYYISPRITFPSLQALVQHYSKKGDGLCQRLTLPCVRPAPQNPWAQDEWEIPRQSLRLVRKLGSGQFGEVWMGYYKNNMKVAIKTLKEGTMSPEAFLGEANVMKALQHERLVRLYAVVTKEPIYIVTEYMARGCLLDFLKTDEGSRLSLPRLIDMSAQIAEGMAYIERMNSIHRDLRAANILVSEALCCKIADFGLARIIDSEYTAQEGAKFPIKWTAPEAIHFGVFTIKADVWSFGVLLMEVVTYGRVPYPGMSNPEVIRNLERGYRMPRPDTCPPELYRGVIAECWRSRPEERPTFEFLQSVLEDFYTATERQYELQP

In the case of C=CC(=O)N1CCC[C@@H](n2nc(-c3ccc(Oc4ccccc4)cc3)c3c(N)ncnc32)C1 [ibrutinib], the KI (inactivation) (BLK) is reported as 28 nM and the KI (inactivation) (TEC kinase) is reported as 233 nM.
